Data set [1] deals with S. aureus (ATCC CRM 6538). To be noted: MIC of Temporin-1CEa ref 29; cited from earlier work. The source says: (§1) Table 2 The MICs and MBCs of Temporin-1CEh and its analogues as well as Temporin-1CEa against the S. aureus (ATCC CRM 6538), MRSA (NCTC 12493), E. faecalis (NCTC 12697), E. coli (ATCC 8739), P. aeruginosa (ATCC 27853) and K. pneumonia (ATCC 43816), as well as the MICs of Temporin-1CEa against S. aureus and E. coli. | column: MIC/MBC (μM) / Temporin-1CEa

Data set [2] relates to E. coli (ATCC 8739). The settings on record: MIC of Temporin-1CEa ref 29; cited from earlier work.
Description: as §1

Data set [3] has as its system erythrocytes from defibrinated horse blood. The settings on record: cited from earlier work. As to the method: The calculated HC50 of Temporin-1CEh was 152.6 μM compared to that of Temporin-1CEa which was 160 μM [29]. Several modified strategies were used to optimise their antibacterial activity.
In another data set the test system is S. aureus. Kind of data set: Galleria mellonella larvae infection model, S. aureus. Format: in vivo. The settings on record: at a concentration of 20 mg/kg; G. mellonella larvae. The protocol:
(§2) In this assay, the larvae of the wax moth (Galleria mellonella) were used as the infection model. The larvae (Livefood UK Ltd., Rooks Bridge, UK) were selected between 225 and 275 mg (9 larvae per group in a Petri dish). For the positive and negative controls, 50 mg/kg of vancomycin (25 mg/kg of ampicillin for E. coli) and PBS were employed. Final concentration of S. aureus and E. coli cells injected was 5 × 10^5 and 5 × 10^6 CFU/larva, respectively. The assay was performed as described before and the number of alive larvae was recorded every 12 h.

The subject of data set [4] is P. aeruginosa (ATCC 27853). The class given is cell-based. The protocol:
(§3) A measure of 5 × 10^5 CFU/mL of bacterial suspension including 2-fold dilution peptides (ranging from 1 µM to 512 µM) was incubated in 96-well plates for 16–20 h at 37 °C. For the positive and negative control, 200 mg/L of final concentration of norfloxacin and 1% DMSO were applied, respectively. […] Subsequently, 10 µL of the solution in each clear well was dropped on a Mueller–Hinton agar (MHA) plate and incubated at 37 °C for 16–20 h. The lowest concentration without colony growth was considered as the MBCs.
(§4) Mueller–Hinton broth (MHB) at pH 6.0 and 8.0 as well as MHB containing 10% of Fetal Bovine Serum (FBS), 150 mM of NaCl, 1 mM of MgCl2 and 4 µM of FeCl3, respectively, were prepared. In particular, the pathogens were diluted by the preprepared mediums to a final concentration of 5 × 10^5 CFU/mL after growing to the logarithmic phase, and other operations followed the MIC assay.

In the next data set the test system is MRSA (NCTC 12493). Format: cell-based. As to the method: as §3, §4
Data set [5] concerns S. aureus (ATCC CRM 6538). The class given is cell-based. As to the method: as §3, §4
In data set [6] the test system is E. coli (ATCC 8739). The class given is cell-based. As to the method:
as §3, §4

For the next data set, the system named is E. faecalis (NCTC 12697). Format: cell-based. As to the method: as §3, §4
The subject of data set [7] is K. pneumoniae (ATCC 43816). Format: cell-based. As to the method:
as §3, §4

The next data set deals with E. coli. Kind of data set: Galleria mellonella larvae infection model, E. coli. Format: in vivo. To be noted: all tested concentrations; G. mellonella larvae, 5 × 10^6 CFU/larva. The protocol: as §2
A short description of data set [8]: Aggregation at high concentration (observation). Format: physicochemical. The settings on record: at a high concentration.
Data set [9] concerns S. aureus (ATCC CRM 6538). Put plainly: Membrane permeability assay (SYTOX GREEN). Format: cell-based. From the text: (§5) In order to test the permeability percentage of Temporin-1CEh and its analogues against S. aureus and E. coli, the SYTOX-GREEN nucleic acid stain was used in the assay indicated before. Tryptic soy broth (TSB) and Luria–Bertani (LB) broth were used as the media for S. aureus and E. coli, respectively.

Data set [10] deals with E. coli (ATCC 8739). Put plainly: Membrane permeability assay (SYTOX GREEN). The class given is cell-based.
Description: as §5

For data set [11], the system named is erythrocytes from defibrinated horse blood. Put plainly: Haemolysis assay. To be noted: at 256 μM; horse erythrocytes.
Description: The erythrocytes from defibrinated horse blood (TCS Biosciences Ltd., Buckingham, UK) were used to perform the haemolysis assay, as described previously [27]. Equal volumes of PBS and 2% (v/v) of the non-ionic detergent, Triton X-100 (Sigma–Aldrich, St. Louis, MO, USA) in PBS solution, were used as negative and positive controls, respectively. HC50 was defined as the mean peptide concentration producing 50% haemolysis.
The test system of data set [12] is E. coli (ATCC 8739) biofilm. Format: cell-based. The protocol:
(§6) The anti-biofilm activities were tested on S. aureus and E. coli, as indicated previously. For the positive and negative control, 20 mg/mL of vancomycin and 1% DMSO were applied, respectively, in both assays. In addition, 0.1% Crystal Violet was used as the biofilm colouring agent.

The test system of data set [13] is S. aureus (ATCC CRM 6538) biofilm. The class given is cell-based. The protocol: as §6

The text below walks through data of paper PMC8949600, “In Vitro & In Vivo Studies on Identifying and Designing Temporin-1CEh from the Skin Secretion of Rana chensinensis as the Optimised Antibacterial Prototype Drug” (Pharmaceutics, 2022).

In general, MIC refers to the lowest concentration found to suppress growth. What is called HC50 is the concentration giving 50% haemolysis. Usually MBC stands for the lowest tested concentration that kills the bacteria rather than only halting them. Low readings indicate more potent killing, high ones less potent killing.

Values after ≈ are worked out from the molar mass of the structure shown. Read-outs that look alike come from different tables or passages of the source. Bridge positions count the residues as written; N and C are the ends. Peptide text beside a SMILES is read from it. I, II: the chains in the order shown.

Take FVDLKKIANIINSIF-NH2 [Temporin-1CEa]: the MIC in data set [1] is 13.1 µM; with E. coli (ATCC 8739) [2], more than 100 µM. Also, the HC50 in data set [3] was 160 µM.
For the compound `CC[C@H](C)[C@H](NC(=O)[C@H](CCCCNC(=O)[C@H](CCCCN)NC(=O)[C@H](Cc1c[nH]c2ccccc12)NC(=O)[C@@H]1CCCN1C(=O)[C@@H](NC(=O)[C@H](Cc1c[nH]c2ccccc12)NC(=O)[C@H](CCCCN)NC(=O)[C@@H](N)CCCCN)C(C)C)NC(=O)[C@H](CCCCN)NC(=O)[C@H](Cc1c[nH]c2ccccc12)NC(=O)[C@@H]1CCCN1C(=O)[C@@H](NC(=O)[C@H](Cc1c[nH]c2ccccc12)NC(=O)[C@H](CCCCN)NC(=O)[C@@H](N)CCCCN)C(C)C)C(=O)N[C@@H](C)C(=O)N[C@@H](CC(N)=O)C(=O)N[C@H](C(=O)N[C@@H](CC(C)C)C(N)=O)[C@@H](C)CC` [Peptide T1CEh-KKPWW2] (I: H-KKWVPWKKIANIL-NH2 / II: H-KKWVPWK; amide I:8-II:C; N-terminus assumed), the “mortality of S. aureus infected larvae” value in the data set with S. aureus is given as “significantly reduced the mortality”. The MBC in [4] (ATCC 27853) was 16 µM (≈ 41.2 µg/mL); against MRSA (NCTC 12493) (NCTC 12493), 16 µM (≈ 41.2 µg/mL); in data set [5] (ATCC CRM 6538), 8 µM (≈ 20.6 µg/mL); against E. coli (ATCC 8739) [6] (ATCC 8739) it was 2 µM (≈ 5.15 µg/mL); in the data set on E. faecalis (NCTC 12697) (NCTC 12697), 64 µM (≈ 165 µg/mL); in data set [7] (ATCC 43816) it was 8 µM (≈ 20.6 µg/mL). In addition, the MIC in data set [4] (ATCC 27853) amounted to 8 µM (≈ 20.6 µg/mL); in [4] (ATCC 27853, pH 6), 32 µM (≈ 82.4 µg/mL); in data set [4] (ATCC 27853, pH 7), 8 µM (≈ 20.6 µg/mL); in data set [4] (ATCC 27853, pH 8), 8 µM (≈ 20.6 µg/mL); with MRSA (NCTC 12493) (NCTC 12493) it was 8 µM (≈ 20.6 µg/mL); against MRSA (NCTC 12493) (NCTC 12493, pH 6), 16 µM (≈ 41.2 µg/mL). Also, the MIC with MRSA (NCTC 12493) (NCTC 12493, pH 7) amounted to 8 µM (≈ 20.6 µg/mL); with MRSA (NCTC 12493) (NCTC 12493, pH 8) it was 2 µM (≈ 5.15 µg/mL); in data set [5] (ATCC CRM 6538), 4 µM (≈ 10.3 µg/mL); in data set [5] (ATCC CRM 6538, pH 6), 8 µM (≈ 20.6 µg/mL); in [5] (ATCC CRM 6538, pH 7) it was 4 µM (≈ 10.3 µg/mL); in [5] (ATCC CRM 6538, pH 8), 2 µM (≈ 5.15 µg/mL). Also, the MIC turned out to be 2 µM (≈ 5.15 µg/mL) in the data set with E. coli (ATCC 8739) [6] (ATCC 8739); 2 µM (≈ 5.15 µg/mL) in the data set on E. coli (ATCC 8739) [6] (ATCC 8739, pH 6); 2 µM (≈ 5.15 µg/mL) against E. coli (ATCC 8739) [6] (ATCC 8739, pH 7); 2 µM (≈ 5.15 µg/mL) with E. coli (ATCC 8739) [6] (ATCC 8739, pH 8); 32 µM (≈ 82.4 µg/mL) with E. faecalis (NCTC 12697) (NCTC 12697); 128 µM (≈ 330 µg/mL) against E. faecalis (NCTC 12697) (NCTC 12697, pH 6). The MIC in the data set on E. faecalis (NCTC 12697) (NCTC 12697, pH 7) was determined as 32 µM (≈ 82.4 µg/mL); against E. faecalis (NCTC 12697) (NCTC 12697, pH 8), 64 µM (≈ 165 µg/mL); in data set [7] (ATCC 43816) it was 4 µM (≈ 10.3 µg/mL); in data set [7] (ATCC 43816, pH 6) it was 8 µM (≈ 20.6 µg/mL); in data set [7] (ATCC 43816, pH 7), 4 µM (≈ 10.3 µg/mL); in data set [7] (ATCC 43816, pH 8), 4 µM (≈ 10.3 µg/mL). In addition, the “decrease of MIC comparing with that of T1CEh-KKPWW” value in [4] (P. aeruginosa) is on record as “twofold”; in the data set with MRSA (NCTC 12493) (MRSA), “four-fold”; in the data set with E. coli (ATCC 8739) [6] (E. coli), “twofold”; in the data set on E. faecalis (NCTC 12697) (E. faecalis), “four-fold”. In addition, the “mortality of E. coli infected larvae” value in the data set on E. coli is recorded as “reduced the mortality”. The aggregation entry in data set [8] was “aggregation can be found in T1CEh-KKPWW2 at a high concentration, achieving hydrogel”. Moreover, the “permeability rates compared with that of Temporin-1CEh” value (in [9]; in the data set on E. coli (ATCC 8739) [10]) was “higher permeability rates” throughout. The compound also registered a haemolysis rate in data set [11] of 63%. Further, the MBEC in [12] and in data set [13] was more than 256 µM each time. Also, the results for the MBIC in data set [12] and in data set [13] were 8 µM and 32 µM, respectively.
